# Results as given in patent US7767803B2, “Stabilized aptamers to PSMA and their use as prostate cancer therapeutics” (Archemix Corp., priority 2002, dated 2010).
# “Also recorded” adds a separate entry of the source. {C6-FAM} = fluorescein (C6-FAM) label; [invdT] = inverted (3'-3') thymidine; d = 2'-deoxy (DNA); m = 2'-O-methyl; r = 2'-OH (RNA); f = 2'-fluoro
# Columns and labels:
# LNCaP cells = test: Cell proliferation assay, chemiluminescent detection of BrdU; type: cell-based; settings: for effect on cell viability / cell killing (in words): LNCaP cells
# Method: Effects on LNCaP cell viability were assessed in a cell proliferation assay based on chemiluminescent detection of BrdU described below (Cell Proliferation ELISA, BrdU (Roche, Indianapolis, Ind.). PC-3 cells were used as a control cell line.
# Media from LNCaP (PSMA+) or PC3 (PSMA−) cells growing in 15 cm plates was aspirated off then cells were washed with 10 mL 1×PBS. Cells were trypsinized for 30 sec at 37° C. Following trypsinization, 8 mL 10% FBS media was used to quench trypsin. […] Following spin the media was aspirated off and the cell pellet was re-suspended with 10 mL complete media. The cell density was adjusted to 200,000 cells/mL. 50 μl of cells/well was added to collagen coated black 96-well plates (10,000 cells/well). […] Following overnight incubation 25 μl of media, aptamer or antibody was added to each well with the final volume in the well being 100 μl and incubated at 37° C. in 5% CO2 for designated time length. […] After 2 days 20 μl BrdU labeling reagent (100×) is mixed with 2 mL of complete media. […] After incubation, the media was removed, and the assay was completed following the manufacturer's protocol: 200 μl/well FixDenat solution was added to each well and incubated for 30 min at RT. Following removal of FixDenat solution 100 μl anti-BrdU POD Fab fragment solution (Luminol/4-iodophenol) was added to each well and incubated for 90 min at RT. After incubation anti-BrdU POD solution was removed and plates were washed with 200 μl/well of washing solution three times with 5 min RT incubations. 100 μl of substrate solution was added to each well and cells were incubated for 3 min at RT in the dark. The plates were read using a luminescence program with a 1 sec count on a Packard TopCount Microplate Scintillation and Luminescence Counter.
# ECD PSMA = target: T1, ECD PSMA (Homo sapiens, UniProt Q04609); test: Dot blot binding assay (nitrocellulose filtration)
# T1 construct: N-terminal linker […]; made in house; host or cells: 293 Freestyle cells, pSecTag2B vector
# Method: The binding reactions are then analyzed by nitrocellulose filtration using a Minifold I dot-blot, 96-well vacuum filtration manifold (Schleicher & Schuell, Keene, N.H.) (dot blot binding assay). A three-layer filtration medium is used, consisting (from top to bottom) of Protran nitrocellolose (Schleicher & Schuell), Hybond-P nylon (Amersham Biosciences, Piscataway, N.J.) and GB002 gel blot paper (Schleicher & Schuell). The nitrocellulose layer, which selectively binds protein over nucleic acid, preferentially retains the anti-PSMA aptamer in complex with a protein ligand, while non-complexed anti-PSMA aptamer passes through the nitrocellulose and adhered to the nylon (the gel blot paper is included as a supporting medium for the other filters). Following filtration, the filter layers are separated, dried and exposed on a phosphor screen (Amersham Biosciences) and quantified using a Storm 860 Phosphorimager® blot imaging system (Amersham Biosciences) and KD values are calculated by fitting the equation y=(max/(1+K/protein))+yint.
# Dot Blot Binding Analysis. […]
# In order to identify the core structural elements required for ARC955 binding to PSMA, the 3′-boundaries of the clone was determined through alkaline hydrolysis. […] The KD and maximum % bound for the 3 minimized constructs with the overall highest PSMA affinity, as determined by a dot blot binding assay, are listed in Table 4. […]
# LNCaP cells (PSMA+) = test: LNCaP FACS assay with fluorescein-labeled aptamers; type: cell-based; settings: FACS analysis
# Description: The parent A9 aptamer sequence (SEQ ID NO 168) is predicted by the MFOLD algorithm implemented in the RNAStructure program v. 4.11 to fold into a partially mismatched hairpin that encompasses almost the entire molecule. A series of truncated constructs were designed, in which self-pairing nucleotides from the 5′- and 3′-ends were simultaneously removed, chemically synthesized using conventional solid-phase phosphoramidite-based synthesis, and tested. In the design of some of the truncated A9 aptamers, see e.g. ARC591, additional bases were added to the 3′ and 5′ ends of the truncate, where the bases added to the 5′ end were capable of forming Watson-Crick base pairs with those added to the 3′ end thereby increasing the length of stem structure. Truncated aptamers were 5′-labeled with fluorescein and tested for binding in to LNCaP cells (PSMA+) in the FACS assay described below. PC-3 cells (PSMA−) were used as a control cell line. The sequences of the truncated A9 aptamers designed are listed below in Table 6 below.
# To accomplish 5′-fluorescein labeling, aptamers were synthesized with a 5′-amine and then modified post-solid phase synthesis. The required aptamer was dissolved to a concentration of ˜10-50 mg/mL in 25 mM phosphate buffer, pH 7.4. The small molecule, NHS ester of fluorescein, was dissolved to a concentration of 10 mg/mL in DMSO. 1.5 Molar equivalents were added to the aptamer and the solution vortexed for ˜15 seconds. The reaction was allowed to proceed in the dark at room temperature for 1 hour and then a 5 μL aliquot was withdrawn, diluted with water and analyzed by HPLC. Additional equivalents of the small molecule were added until the reaction was complete by HPLC. Excess small molecules were removed by gel filtration.
# To prepare aptamers for the FACS assay, PSMA aptamers were serially diluted (0-1 uM) in FACS buffer (1×DPBS w/Ca^++/Mg^++ (Gibco, Carlsbad, Calif.) supplemented with 10 mg/mL salmon sperm DNA & 0.2% Na Azide), in a V-bottom 96 well plate, at the concentrations to be tested. LNCaP and PC-3 cells (ATCC, Manassas, Va.) were harvested with trypsin, and 200,000 cells/well were counted, washed once with 1×DPBS (with Ca^++ and Mg^++) and resuspended in 200 μl of FACS Buffer. The 200 μl of cells in FACS buffer were added to individual wells of a new 96 well plate, pelleted by centrifugation (1300 rpm for 5 minutes), and resuspended in 100 μl of the appropriate concentration of diluted aptamer. FACS buffer, c-PSMA antibody (3C6) (Northwest Biotherapeutics, Bothell, Wash., Cat #: 60-5002) and an irrelevant fluorescein isothiocyanate (“FITC”) mouse IgG1 isotype control antibody (BD Pharmingen, San Diego, Calif., Cat#: 554679) were used as controls. The wells of aptamer/cell mixture were incubated at room temperature for 20-30 minutes. […]
# PSMA NAALADase activity = PSMA NAALADase activity (Homo sapiens, UniProt Q04609); test: NAALADase inhibition assay; type: biochemical; settings: relative to parent aptamer
# Method: These point mutant constructs were assessed for activity in terms of inhibition of PSMA NAALADase activity. The NAALADase assay was performed in 96 well format. PSMA aptamers were serially diluted in 1× reaction buffer (40 mM Tris-HCl, pH 7.4, 0.1 mM ZnSO4, 0.1 mg/mL BSA) in a standard 96 well plate to be tested at a final concentration range from 30 pM to 1 μM. The enzyme was prepared by diluting 30 μL of 100 nM PSMA into 8 mL of reaction buffer, and kept cool on ice. The substrate was prepared by adding 19 μl of NAAG [Glutamate-3,4-^3H], 50.8 Ci/mmol, 19.7 μM (Perkin-Elmer, Wellesley, Mass., NET1082) into 2.2 mL of reaction buffer.
# Following preparation of all reagents, 4 μl of each serially diluted aptamer was added to a separate 96 well plate (the reaction plate). 76 μl of diluted enzyme was added to the corresponding wells containing aptamer. 80 μl of reaction buffer was added to one column of wells to serve as a background control. The diluted substrate and reaction plate were then moved to a room at 37° C. and allowed to equilibrate for 10 minutes. […]
# To separate the cleavage products, […] and Glutamate, from the substrate, an AG 1-×8, 200-400 mesh, formate resin (BioRad, Hercules, Calif., # 140-1454) was used. […] The plate was sealed and read using a Packard Topcount Microplate Scintillation Counter. […]
# T1 sequence (Q04609 with tags, fused parts or gaps): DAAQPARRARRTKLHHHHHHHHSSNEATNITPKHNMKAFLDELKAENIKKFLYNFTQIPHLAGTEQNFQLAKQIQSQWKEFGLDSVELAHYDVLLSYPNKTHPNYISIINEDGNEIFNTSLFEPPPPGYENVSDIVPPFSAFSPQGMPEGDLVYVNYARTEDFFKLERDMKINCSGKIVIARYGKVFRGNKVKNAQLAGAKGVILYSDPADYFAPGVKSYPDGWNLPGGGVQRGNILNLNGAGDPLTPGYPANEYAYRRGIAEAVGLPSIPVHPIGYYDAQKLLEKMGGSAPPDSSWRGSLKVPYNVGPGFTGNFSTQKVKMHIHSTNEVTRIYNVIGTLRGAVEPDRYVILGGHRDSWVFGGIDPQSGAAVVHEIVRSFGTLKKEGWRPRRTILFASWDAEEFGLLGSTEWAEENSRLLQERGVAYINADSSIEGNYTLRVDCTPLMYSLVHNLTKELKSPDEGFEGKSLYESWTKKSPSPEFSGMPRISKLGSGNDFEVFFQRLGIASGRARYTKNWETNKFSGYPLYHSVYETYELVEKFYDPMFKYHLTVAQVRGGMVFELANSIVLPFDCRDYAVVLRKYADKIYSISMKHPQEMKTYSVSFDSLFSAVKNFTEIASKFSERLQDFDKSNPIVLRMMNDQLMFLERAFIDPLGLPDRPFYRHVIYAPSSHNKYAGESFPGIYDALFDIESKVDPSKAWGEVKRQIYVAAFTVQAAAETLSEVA
# Sequence of PSMA NAALADase activity (Q04609 with tags, fused parts or gaps limits assumed): as the sequence (Q04609 with tags, fused parts or gaps) above
compound,measurement,setting,value
"O=c1c(-c2ccc(O)cc2)coc2cc(O)cc(O)c12 [Genistein, reference compound]",cytotoxicity at 25 μM,"LNCaP cells; positive control, 25 μM dose",partial inhibition
same,cytotoxicity at 150 μM,"LNCaP cells; positive control, 150 μM",complete cell killing
"AGAGGAGAGAACGUUCUACUAUGGGUGGCUGGGAGGGG (2'-O-methyl at ACU, RNA at G, backbone not given here) [ARC1091, rGmH minimer of ARC955]",PSMA binding (in words),ECD PSMA,maintains the full binding capacity
"C6 FAM-GGAGGACCGAAAAAGACCUGACUUCUAUACUAAGUCUACGUUCCUCC-3T (GGAGGACCGAAAAAGACCUGACUUCUAUACUAAGUCUACGUUCCUCCT; 5' FAM label and 3' inverted dT, sugar chemistry not clearly assigned, further chemistry not given here) [ARC710, fluorescently labeled A9 minimer]",competition with fluorescently labeled anti-PSMA antibody for binding to the surface of LNCaP cells,LNCaP cells (PSMA+),effectively competes
"CUACUACACAUGGGUCGGGUGAGUGGCAAAGGAAUAGUAG (2'-O-methyl at ACU, RNA at G, backbone not given here) [ARC725]",PSMA binding (in words),ECD PSMA,no intrinsic PSMA binding; also recorded: not to exhibit PSMA binding
UAAUACGACUCACUAUAGGGAGAGGAGAGAACGUUCUACUAUGGGUGGCUGGGAGGGGAAGAGGGAGUAGGUCGAUCGAUCGAUCAUCGAUG [ARC955],effect on cell viability / cell killing (in words),LNCaP cells,no intrinsic effect on cell viability at any concentration
"c6 fam-mCmGmGmAfCfCmGAAAAmAmGmAmCfCfUGAfCfUfUfCfUAfUAfCfUAAmGmUmCmUAfCmGfUmUmCmCmG-3T (CGGACCGAAAAAGACCUGACUUCUAUACUAAGUCUACGUUCCG; sugars from the 5' end mmmmffmrrrrmmmmffrrfffffrfrffrrmmmmrfmfmmmm, [invdT] at 3' end, 5' {C6-FAM}, backbone not given here) [ARC711, fluorescently labeled A9 minimer]",competition with fluorescently labeled anti-PSMA antibody for binding to the surface of LNCaP cells,LNCaP cells (PSMA+),effectively competes
mCmGmGmACmGAAAAmAmGmAmCfCfUGAfCfUfUfCfUAfUAfCfUAAmGmUmCmUAfCmGfUmUmCmCmG-3T [ARC942],effect on cell viability / cell killing (in words),LNCaP cells,no intrinsic effect on cell viability at any concentration
"mCmGmGmAfCfCmGdAdAfCmAmAmGmGmCfCfU-s-dGmAfCfUfUfCfUmAfUmAfCfUdAmAmGmCmCmUmAfCmGfUmUmCmCmG-3T (CGGACCGAACAAGGCCUGACUUCUAUACUAAGCCUACGUUCCG; sugars from the 5' end mmmmffmddfmmmmmffdmfffffmfmffdmmmmmmfmfmmmm, [invdT] at 3' end, backbone not given here; internal -s- element between two units) [ARC1725]",NAALADase inhibition activity (in words),PSMA NAALADase activity,retained full activity
